Consider ten molecules from patent publication US12187672B2, “1,2-diacylglycerol compound, preparation method therefor, and immunomodulator containing same as active ingredient” (ENZYCHEM LIFESCIENCES CORPORATION, priority 2018, dated 2025).

One test has as its system HL-60 cells. The test is described as follows: Migration of HL-60 cell line toward THP-1 culture supernatant (transmigration assay). To be noted: supernatant of THP-1 cells treated with sample 100 μg/ml 1 h, then Gemcitabine 2 μg/ml 24 h. It counts as cell-based, human. The essentials: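 THP-1 cells pretreated 1 h with compounds, then stimulated with gemcitabine (2 μg/ml) for 24 h; supernatant placed in lower chamber. HL-60 cells (5×10^4/chamber) migrated through laminin I-coated upper chamber; migrated cells quantified by Calcein-AM fluorescence converted to cell number.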

In another test the test system is STAT6. The test is described as follows: IL-4-induced STAT6 activity, pGL4-STAT6 luciferase reporter in A549 cells. As to conditions: sample 100 μg/ml 1 h, then IL-4 (10 ng/ml) 20 h, Table 10. It counts as cell-based. The essentials:
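A549 cells transiently transfected with pGL4-STAT6 reporter (24 h), pretreated with compound 1 h, then stimulated with IL-4 (2 ng/ml or 10 ng/ml) for 20 h. Cells lysed and luciferase luminescence read as STAT6 activity.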
(In general: Reporter assays use an easily measured gene product as a stand-in for the process of interest.)

A further test has as its system IL-6. Nature of the test: LPS-induced IL-6 secretion reduction in RAW264.7 cells (ELISA). It counts as cell-based, mouse. As to conditions: sample 100 μg/ml 1 h, then LPS 1 μg/ml 24 h, Table 3. The essentials: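 Mouse RAW264.7 macrophages in DMEM/10% FBS were plated at 5×10^4 cells/ml, rested for 15 h, treated with compound for 1 h, then stimulated with 1 μg/ml LPS for 24 h at 37 °C. IL-6 in the supernatant was measured by sandwich ELISA (HRP, OD 450 nm) and expressed as reduction rate or concentration.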
For orientation: An ELISA detects its analyte on a solid surface through an enzyme-linked reagent.

The test system of a further test is CXCL8 (IL-8). Nature of the test: CXCL8 (IL-8) expression reduction in Gemcitabine-treated THP-1 cells (ELISA). As to conditions: THP-1 cells; sample 100 μg/ml 1 h, then Gemcitabine 2 μg/ml 24 h. Format: cell-based, human. The gist of the method: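 Human THP-1 macrophage-like cells in RPMI/10% FBS, plated at 1×10^6 cells/ml, pretreated 1 h with compound, then stimulated with Gemcitabine (2 μg/ml) for 24 h at 37° C, 5% CO2. Secreted IL-8 in the supernatant was measured by sandwich ELISA, read at 450 nm.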

Molecules are shown by their SMILES.

As to `CCCCC/C=C\C/C=C\CCCCCCCC(=O)OC(COC(=O)CC)COC(=O)CCCCCCCCCCC` (stereo not shown) [EC_A91], the “Number of HL-60 cells migrated through Transwell” value (“Number” for short) with HL-60 cells is 9429.8 Cell Number. In addition, in the test with STAT6, the “STAT6 activity_Luciferase activity (average ± deviation)” value is 22036.0 ± 4089.4. Besides, in the test on IL-6, the “IL-6 concentration (average ± deviation)” value was 0.752 ± 0.068 pg/µL. The “CXCL8 [IL-8] concentration (average ± deviation)” value (from here on “CXCL8 … (average ± deviation)”) in the test on CXCL8 (IL-8) is 96.1 ± 3.6 pg/µL.

Turning to `CCCCC/C=C\C/C=C\CCCCCCCC(=O)OC(COC(=O)CCC)COC(=O)CCCCCCCCC` (stereo not shown) [EC_A98], in the test on HL-60 cells, the “Number” value was found to be 11056.8 Cell Number. In addition, in the test on STAT6, the “STAT6 activity_Luciferase activity (average ± deviation)” value came out at 14727.2 ± 129.2. In addition, the “IL-6 concentration (average ± deviation)” value in the test with IL-6 was 0.619 ± 0.036 pg/µL. Moreover, the “CXCL8 … (average ± deviation)” value in the test on CXCL8 (IL-8) amounted to 105 ± 2.0 pg/µL.

For the molecule `CCCCC/C=C\C/C=C\CCCCCCCC(=O)OC(COC(=O)CCCCCCCCCCCCCCC)COC(=O)C1CC1` (stereo not shown) [EC_A79], the “Number” value in the test with HL-60 cells is recorded as 12527.5 Cell Number. Moreover, the “STAT6 activity_Luciferase activity (average ± deviation)” value in the test on STAT6 was determined as 20037.7 ± 786.0. In addition, the “IL-6 concentration (average ± deviation)” value in the test on IL-6 is 0.652 ± 0.145 pg/µL. In addition, in the test on CXCL8 (IL-8), the “CXCL8 … (average ± deviation)” value worked out at 108.7 ± 8.3 pg/µL.

As for `CCCCC/C=C\C/C=C\CCCCCCCC(=O)OC(COC(=O)CC)COC(=O)CCCCCCCCC` (stereo not shown) [EC_A97], the “Number” value in the test on HL-60 cells was found to be 7440.6 Cell Number. In addition, the “STAT6 activity_Luciferase activity (average ± deviation)” value in the test with STAT6 came to 16787.0 ± 4102.6. Moreover, the “IL-6 concentration (average ± deviation)” value in the test on IL-6 worked out at 0.745 ± 0.015 pg/µL. The “CXCL8 … (average ± deviation)” value with CXCL8 (IL-8) came to 96.2 ± 0.2 pg/µL.

As for `CCCCC/C=C\C/C=C\CCCCCCCC(=O)OC(COC(=O)CC)COC(=O)CCCCCCC` (stereo not shown) [EC_A87], in the test with HL-60 cells, the “Number” value came out at 7198.0 Cell Number. Moreover, in the test on STAT6, the “STAT6 activity_Luciferase activity (average ± deviation)” value was 17258.7 ± 3007.1. In addition, the “IL-6 concentration (average ± deviation)” value in the test on IL-6 was 0.705 ± 0.158 pg/µL. Further, the “CXCL8 … (average ± deviation)” value in the test on CXCL8 (IL-8) stood at 134.4 ± 10.7 pg/µL.

`CCCCC/C=C\C/C=C\CCCCCCCC(=O)OC(COC(=O)CCCCCCCCC)COC(=O)C(C)C` (stereo not shown) [EC_A100]: the “Number” value with HL-60 cells came out at 8947.2 Cell Number. Moreover, the “STAT6 activity_Luciferase activity (average ± deviation)” value with STAT6 is reported as 14212.0 ± 1008.8. Also, in the test with IL-6, the “IL-6 concentration (average ± deviation)” value is 0.749 ± 0.054 pg/µL. In the test on CXCL8 (IL-8), the “CXCL8 … (average ± deviation)” value worked out at 115.1 ± 3.9 pg/µL.

Consider `CCCCC/C=C\C/C=C\CCCCCCCC(=O)OC(COC(=O)CCC)COC(=O)CCCCCCCCCCC` (stereo not shown) [EC_A92], for which the “Number” value in the test with HL-60 cells is reported as 2891.6 Cell Number. For the same molecule, the “STAT6 activity_Luciferase activity (average ± deviation)” value with STAT6 stood at 17237.2 ± 317.7. Besides, the “IL-6 concentration (average ± deviation)” value in the test with IL-6 was 0.800 ± 0.038 pg/µL. Further, in the test with CXCL8 (IL-8), the “CXCL8 … (average ± deviation)” value was 105.1 ± 0.2 pg/µL.

For `CCCCC/C=C\C/C=C\CCCCCCCC(=O)OC(COC(=O)CCCCCCC)COC(=O)C(C)C` (stereo not shown) [EC_A88], the “Number” value with HL-60 cells worked out at 17552.5 Cell Number. Also, the “STAT6 activity_Luciferase activity (average ± deviation)” value with STAT6 is recorded as 17409.5 ± 1849.8. In addition, the “IL-6 concentration (average ± deviation)” value in the test with IL-6 is 0.792 ± 0.086 pg/µL. In addition, the “CXCL8 … (average ± deviation)” value with CXCL8 (IL-8) was 91.4 ± 3.4 pg/µL.

In the case of `CCCCC/C=C\C/C=C\CCCCCCCC(=O)OC(COC(=O)CCCCCCCCCCC)COC(=O)C(C)CC` (stereo not shown) [EC_A96], the “Number” value in the test on HL-60 cells is reported as 15110.8 Cell Number. Besides, the “STAT6 activity_Luciferase activity (average ± deviation)” value with STAT6 came out at 14593.2 ± 2168.7. Also, in the test with IL-6, the “IL-6 concentration (average ± deviation)” value came to 0.788 ± 0.006 pg/µL. Further, the “CXCL8 … (average ± deviation)” value with CXCL8 (IL-8) was determined as 103.7 ± 5.4 pg/µL.

In the case of `CCCCC/C=C\C/C=C\CCCCCCCC(=O)OC(COC(=O)CCCCCCCCC)COC(=O)C(C)CC` (stereo not shown) [EC_A102], in the test with HL-60 cells, the “Number” value is reported as 8091.5 Cell Number. In addition, the “STAT6 activity_Luciferase activity (average ± deviation)” value with STAT6 was found to be 18719.2 ± 2558.5. Besides, the “IL-6 concentration (average ± deviation)” value in the test on IL-6 was 0.738 ± 0.070 pg/µL. Also, the “CXCL8 … (average ± deviation)” value with CXCL8 (IL-8) came out at 102.5 ± 4.4 pg/µL.
